Laboratory results published in patent US9597407B2, “Targeted antimicrobial moieties” (C3 Jian, Inc., priority 2009, dated 2017).
“Also recorded” adds a separate entry of the source. Ends that are not written are not given here.

Experiments:
bacteria = assay: Binding of targeting peptides to microorganisms (Table 3); conditions: preferably 1x PBS; for Target(s) (microorganisms bound by the targeting peptide) / Target(s) (microorganism bound by the targeting peptide): peptide binding in aqueous buffers that varied depending on peptide solubility
microorganisms [1] = assay: Peptide activities: binding, antimicrobial, growth or phenotype altering (Table 8)
From the text: In certain embodiments, peptides described herein can have multiple activities. Thus for example, a peptide can have both binding/targeting activity and antimicrobial activity. Such peptides can be used, e.g., in a chimeric construct, for any or all of these properties. Thus, for example, a peptide designated “B” in Table 8 can be used as a targeting peptide. If it is also designated G or M it can also be used for antimicrobial activity.

microorganisms [2] = assay: Morphology, biofilm and growth disruption by peptides (Table 5); type: cell-based; design: key: A: Peptide aggregates; B: Less hyphal formation; Clumps; Diffuse clumps and small polyps; F: Diffuse growth; H: Thin; I: Growth inhibition; Microcolony formation; Rippled; Small polyps; Thick; W: Halo formation on top, microlonies on bottom
From the text: In certain embodiments peptides that induce alterations in phenotype or other biological activities can also be used as antimicrobial effector moieties.

[3] = microorganism the targeting peptide binds, binding in aqueous buffers that varied with peptide solubility
[4] = microorganism bound by the targeting peptide, binding in aqueous buffers chosen by peptide solubility

Row | Substance | Target(s) (microorganisms bound by the targeting peptide) (bacteria) | Activities (microorganisms [1]) | Organism, effect (microorganisms [2]; MRSA) | Organism, effect (microorganisms [2]; S. epidermidis) | Organism, effect (morphology, biofilm and growth disruption) (microorganisms [2]; S. pneumoniae) | other results
1 | PF-390 (VVAYVITQVGAIRF; Peptide with targeting and/or antimicrobial activity) | S. epidermidis and P. aeruginosa and C. albicans and MRSA | G B | MRSA (D) | S. epidermidis (D) | – | Organism, effect (microorganisms [2]; C. jejuni): C. jejuni (D); Organism, effect (microorganisms [2]; E. coli): E. coli (C); Organism, effect (microorganisms [2]; E. faecalis): E. faecalis (D); Organism, effect (microorganisms [2]; S. pneumoniae): S. pneumoniae (D)
2 | PF-744 (chain 1 LGVGTFVGKVLIKNQQKQKSKKKAQ; chain 2 LGVGTFVGKVLIKNQQKQKSKKKAQ; Peptide with targeting and/or antimicrobial activity) | – | G B | – | – | S. pneumoniae (H) | Target(s) (microorganism bound by the targeting peptide) (bacteria): S. epidermidis and M. luteus and E. coli and MRSA and S. pneumoniae and E. faecalis and C. jeikeium
3 | PF-031 (MPHHSTTSSRIVVPAHQSNMASTPNLSITP; Peptide with targeting and/or antimicrobial activity) | – | G B | MRSA (M) | – | – | Target(s) (bacteria; [3]): M. luteus; also recorded: C. albicans
4 | PF-553 (LTIVGNALQQKNQKLLLNQKKITSLG; Peptide with targeting and/or antimicrobial activity) | S. epidermidis and E. coli and P. aeruginosa and C. albicans and MRSA and S. pneumoniae and C. jeikeium | G B | – | – | S. pneumoniae (R) | Organism, effect (morphology, biofilm and growth disruption) (microorganisms [2]; B. subtilis): B. subtilis (D); Organism, effect (morphology, biofilm and growth disruption) (microorganisms [2]; C. jeikeium): C. jeikeium (R); Organism, effect (morphology, biofilm and growth disruption) (microorganisms [2]; MRSA): MRSA (M)
5 | PF-370 (VIFLHKESGNLKEIFY; Peptide with targeting and/or antimicrobial activity) | – | G B | MRSA (C) | S. epidermidis (C) | – | Target(s) (bacteria; [4]): S. epidermidis; also recorded: E. coli; also recorded: P. aeruginosa; also recorded: E. faecalis; also recorded: C. jejuni; Organism, effect (microorganisms [2]; E. coli): E. coli (R)
6 | PF-378 (ESAKSNLNFLMQEEWALFLLL; Peptide with targeting and/or antimicrobial activity) | – | G B | MRSA (M) | S. epidermidis (M) | – | Target(s) (bacteria; [4]): B. subtilis; also recorded: B. fragilis; also recorded: E. coli; also recorded: P. aeruginosa; also recorded: C. jeikeium
7 | PF-551 (QVKEKRREIELQFRDAEKKLEASVQAE; Peptide with targeting and/or antimicrobial activity) | S. pneumoniae | G B | – | – | – | Organism, effect (morphology, biofilm and growth disruption) (microorganisms [2]; MRSA): MRSA (C)
8 | PF-576 (AYSGELPEPLVRKMSKEQVRSVMGK; Peptide with targeting and/or antimicrobial activity) | M. luteus; also recorded: P. mirabilis; also recorded: E. coli; also recorded: P. aeruginosa; also recorded: C. albicans; also recorded: S. pneumoniae | G B | – | – | S. pneumoniae (C) | Organism, effect (morphology, biofilm and growth disruption) (microorganisms [2]; C. jejuni): C. jejuni (C); Organism, effect (morphology, biofilm and growth disruption) (microorganisms [2]; E. coli): E. coli (A); Organism, effect (morphology, biofilm and growth disruption) (microorganisms [2]; MRSA): MRSA (R); Organism, effect (morphology, biofilm and growth disruption) (microorganisms [2]; S. epidermidis): S. epidermidis (A)
9 | PF-073 (CPSVTMDACALLQKFDFCNNISHFRHFFAIKQPIER; Peptide with targeting and/or antimicrobial activity) | – | G B | MRSA (M) | S. epidermidis (R) | – | Target(s) (bacteria; [4]): S. epidermidis and M. luteus and P. aeruginosa and C. albicans and MRSA and S. pneumoniae and E. faecalis; Organism, effect (microorganisms [2]; C. jeikeium): C. jeikeium (D); Organism, effect (microorganisms [2]; C. jejuni): C. jejuni (D); Organism, effect (microorganisms [2]; M. luteus): M. luteus (R); Organism, effect (microorganisms [2]; S. pneumoniae): S. pneumoniae (D)
10 | PF-621 (chain 1 PPSSFLV; chain 2 PPSSFLV; Peptide with targeting and/or antimicrobial activity) | – | G B | – | – | S. pneumoniae (I) | Target(s) (microorganism bound by the targeting peptide) (bacteria): S. epidermidis; also recorded: C. albicans; Organism, effect (morphology, biofilm and growth disruption) (microorganisms [2]; E. faecalis): E. faecalis (H)
11 | PF-394 (VLKEECYQKN; Peptide with targeting and/or antimicrobial activity) | S. epidermidis and MRSA and C. jejuni | G B | MRSA (C) | – | – | Organism, effect (microorganisms [2]; E. faecalis): E. faecalis (A)
12 | PF-563 (RPELDNELDVVQNSASLDKLQASYN; Peptide with targeting and/or antimicrobial activity) | S. epidermidis; also recorded: M. luteus; also recorded: C. jeikeium | G B | – | – | S. pneumoniae (H) | Organism, effect (morphology, biofilm and growth disruption) (microorganisms [2]; B. subtilis): B. subtilis (D); Organism, effect (morphology, biofilm and growth disruption) (microorganisms [2]; C. jejuni): C. jejuni (H)
13 | PF-452 (MNNWIKVAQISVTVINEVIDIMKEKQNGGK; Peptide with targeting and/or antimicrobial activity) | M. luteus; also recorded: P. aeruginosa; also recorded: C. albicans; also recorded: S. pneumoniae; also recorded: E. faecalis; also recorded: C. jeikeium; also recorded: M. smegmatis | G B | – | – | S. pneumoniae (R) | Organism, effect (morphology, biofilm and growth disruption) (microorganisms [2]; E. coli): E. coli (C); Organism, effect (morphology, biofilm and growth disruption) (microorganisms [2]; E. faecalis): E. faecalis (C); Organism, effect (morphology, biofilm and growth disruption) (microorganisms [2]; MRSA): MRSA (C); Organism, effect (morphology, biofilm and growth disruption) (microorganisms [2]; S. epidermidis): S. epidermidis (C)
14 | PF-C058 (FETGFGDGYYMSLWGLNEKDEVCKVVIPFINPELID; Peptide with targeting and/or antimicrobial activity) | – | G B | – | – | – | Target(s) (microorganism bound by the targeting peptide) (bacteria): A. naeslundii; also recorded: F. nucleatum; also recorded: P. gingivalis; also recorded: S. mutans; Organism, effect (morphology, biofilm and growth disruption) (microorganisms [2]; S. mutans): S. mutans (F)
15 | PF-392 (DPAGCNDIVRKYCK; Peptide with targeting and/or antimicrobial activity) | S. epidermidis; also recorded: B. subtilis; also recorded: S. pneumoniae; also recorded: C. jeikeium; also recorded: C. jejuni | G B | MRSA (S) | – | – | Organism, effect (microorganisms [2]; C. jejuni): C. jejuni (A); Organism, effect (microorganisms [2]; E. faecalis): E. faecalis (A)
16 | PF-048 (LYFAFKKYQERVNQAPNIEY; Peptide with targeting and/or antimicrobial activity) | – | G B | MRSA (W) | S. epidermidis (D) | – | Target(s) (bacteria; [3]): S. epidermidis and M. luteus and E. coli and MRSA and C. jeikeium and C. jejuni; Organism, effect (microorganisms [2]; C. jeikeium): C. jeikeium (S)
17 | PF-051 (RFFNFEIKKSTKVDYVFAHVDLSDV; Peptide with targeting and/or antimicrobial activity) | – | G B | MRSA (D) | S. epidermidis (D) | – | Target(s) (bacteria; [3]): S. epidermidis and M. luteus and P. aeruginosa and C. albicans and MRSA and S. pneumoniae and E. faecalis; Organism, effect (microorganisms [2]; M. luteus): M. luteus (C); Organism, effect (microorganisms [2]; S. mutans): S. mutans (D); Organism, effect (microorganisms [2]; S. pneumoniae): S. pneumoniae (D)
18 | PF-550 (STENGWQEFESYADVGVDPRRYVPL; Peptide with targeting and/or antimicrobial activity) | S. pneumoniae | G B | – | – | – | Organism, effect (morphology, biofilm and growth disruption) (microorganisms [2]; B. subtilis): B. subtilis (D)
19 | PF-528 (LVDVVVLIRRHLPKSCS-NH2) | S. epidermidis and P. aeruginosa and C. albicans and MRSA and S. pneumoniae and E. faecalis | G B | – | – | S. pneumoniae (R) | Organism, effect (morphology, biofilm and growth disruption) (microorganisms [2]; C. albicans): C. albicans (C); Organism, effect (morphology, biofilm and growth disruption) (microorganisms [2]; E. coli): E. coli (H); Organism, effect (morphology, biofilm and growth disruption) (microorganisms [2]; MRSA): MRSA (H); Organism, effect (morphology, biofilm and growth disruption) (microorganisms [2]; S. epidermidis): S. epidermidis (H)
20 | PF-456 (TCVKPRTIN; Peptide with targeting and/or antimicrobial activity) | C. albicans and MRSA and E. faecalis and C. jeikeium and C. jejuni | G B | – | – | – | Organism, effect (morphology, biofilm and growth disruption) (microorganisms [2]; C. jejuni): C. jejuni (A); Organism, effect (morphology, biofilm and growth disruption) (microorganisms [2]; E. faecalis): E. faecalis (A)
21 | PF-373 (HFYLLFER; Peptide with targeting and/or antimicrobial activity) | – | G B | MRSA (M) | S. epidermidis (M) | – | Target(s) (bacteria; [4]): S. epidermidis and E. coli and P. aeruginosa and C. albicans and MRSA and E. faecalis and C. jejuni
22 | PF-567 (QQRVKAVDASLSQVSTQVSGAVASA; Peptide with targeting and/or antimicrobial activity) | S. epidermidis and P. aeruginosa and C. albicans and MRSA and S. pneumoniae and C. jeikeium | G B | – | – | S. pneumoniae (D) | Organism, effect (morphology, biofilm and growth disruption) (microorganisms [2]; C. jeikeium): C. jeikeium (C); Organism, effect (morphology, biofilm and growth disruption) (microorganisms [2]; C. jejuni): C. jejuni (D); Organism, effect (morphology, biofilm and growth disruption) (microorganisms [2]; M. luteus): M. luteus (C); Organism, effect (morphology, biofilm and growth disruption) (microorganisms [2]; MRSA): MRSA (D)
